# Test results: patent US5200404A, “3-tetrazolylthiomethyl cephalosporin antibiotics” (ICI Pharma, priority 1990, dated 1993)
# Read-outs that look alike come from different tables or passages of the source.
# What was measured:
# A. anitratus (A8322001) = assay: MIC by agar-dilution, Diagnostic Sensitivity Test agar; type: cell-based; settings: Acinetobacter calcoaceticus
# Excerpt: (§1) The following results were obtained for Example 1 and two comparative compounds on a standard in vitro test system using Diagnostic Sensitivity Test agar medium. The antibacterial activity is described in terms of the minimum inhibitory concentration (MIC) determined by the agar-dilution technique with an inoculum size of 10^4 CFU/spot.
# [1] = tested on: Citro. freundii DR(A8382031); assay: as above; type: cell-based; settings: Citrobacter freundii
# Excerpt: as §1
# [2] = tested on: Citro. freundii DR(A8382034); assay: as above; type: cell-based; settings: Citrobacter freundii, inoculum 10^4 CFU/spot
# Excerpt: as §1
# E. coli DCO(A8341098) = assay: as above; type: cell-based; settings: Escherichia coli, inoculum 10^4 CFU/spot
# Excerpt: as §1
# [3] = tested on: E. coli JS3 RTEM(A8341135); assay: as above; type: cell-based; settings: Escherichia coli
# Excerpt: as §1
# [4] = tested on: Ent. cloacae DR(A8401108); assay: as above; type: cell-based; settings: Enterobacter cloacae, inoculum 10^4 CFU/spot
# Excerpt: as §1
# [5] = tested on: Ent. cloacae DR(A8401109); assay: as above; type: cell-based; settings: Enterobacter cloacae, inoculum 10^4 CFU/spot
# Excerpt: as §1
# [6] = tested on: Ent. cloacae P99+(A8401053); assay: as above; type: cell-based; settings: Enterobacter cloacae
# Excerpt: as §1
# [7] = tested on: Ent. cloacae P99-(A8401054); assay: as above; type: cell-based; settings: Enterobacter cloacae
# Excerpt: as §1
# [8] = tested on: K. oxytoca D1^+ (A8395056); assay: as above; type: cell-based; settings: Klebsiella oxytoca
# Excerpt: as §1
# [9] = tested on: P. aeruginosa 18S(A8101024); assay: as above; type: cell-based; settings: Pseudomonas aeruginosa
# Excerpt: as §1
# [10] = tested on: P. aeruginosa DR18SH(A81011020); assay: as above; type: cell-based; settings: Pseudomonas aeruginosa
# Excerpt: as §1
# [11] = tested on: P. aeruginosa PU21(A8101028); assay: as above; type: cell-based; settings: Pseudomonas aeruginosa
# Excerpt: as §1
# P. stuartii DR(A8382031) = assay: as above; type: cell-based; settings: Providencia stuartii
# Excerpt: as §1
# Pr. morganii (A8433001) = assay: as above; type: cell-based; settings: Morganella morganii, inoculum 10^4 CFU/spot
# Excerpt: as §1
# [12] = tested on: Pr. morganii DR(A8433062); assay: as above; type: cell-based; settings: Morganella morganii, inoculum 10^4 CFU/spot
# Excerpt: as §1
# S. dublin (A8369001) = assay: as above; type: cell-based; settings: Salmonella enterica
# Excerpt: as §1
# [13] = tested on: Serr. marcesens (A8421003); assay: as above; type: cell-based; settings: inoculum 10^4 CFU/spot
# Excerpt: as §1
# [14] = tested on: Serr. marcesens DR(A8421078); assay: as above; type: cell-based; settings: inoculum 10^4 CFU/spot
# Excerpt: as §1
# [15] = tested on: Strep. pneumoniae (A8671001); assay: as above; type: cell-based; settings: Streptococcus pneumoniae
# Excerpt: as §1
# [16] = tested on: Strep. pyogenes (A8681018); assay: as above; type: cell-based; settings: Streptococcus pyogenes
# Excerpt: as §1
# half-life in marmosets = type: in vivo
# Procedure: when dosed to marmosets at 3 mg/kg.
structure (smiles),measurement,setting,value
"CC(C)(O/N=C(\C(=O)NC1C(=O)N2C(C(=O)O)=C(CSc3nnnn3-c3cc(O)c(O)c(Cl)c3CC(=O)O)CS[C@H]12)c1csc(N)n1)C(=O)O (stereo partly shown) [Example 1, 7-[2-(2-Aminothiazol-4-yl)-2-((Z)-1-carboxy-1-methylethoxyimino)acetamido]-3-[(1-(2-carboxymethyl-3-chloro-4,5-dihydroxyphenyl)tetrazol-5-yl)thiomethyl]ceph-3-em-4-carboxylic acid]",MIC,"A. anitratus (A8322001); A. anitratus (A8322001), inoculum 10^4 CFU/spot, read-out: MIC",0.06 µg/mL
same,MIC,"[1]; Citro. freundii DR(A8382031), inoculum 10^4 CFU/spot, read-out: MIC",0.25 µg/mL
same,MIC,[2],0.5 µg/mL
same,MIC,E. coli DCO(A8341098),0.002 µg/mL
same,MIC,[3],0.001 µg/mL
same,MIC,[4],0.25 µg/mL
same,MIC,[5],0.125 µg/mL
same,MIC,[6],1 µg/mL
same,MIC,"[7]; Ent. cloacae P99-(A8401054), inoculum 10^4 CFU/spot, read-out: MIC",0.125 µg/mL
same,MIC,"[8]; K. oxytoca D1^+ (A8395056), inoculum 10^4 CFU/spot, read-out: MIC",0.004 µg/mL
same,MIC,"[9]; P. aeruginosa 18S(A8101024), inoculum 10^4 CFU/spot, read-out: MIC",0.004 µg/mL
same,MIC,"[10]; P. aeruginosa DR18SH(A81011020), inoculum 10^4 CFU/spot, read-out: MIC",0.016 µg/mL
same,MIC,"[11]; P. aeruginosa PU21(A8101028), inoculum 10^4 CFU/spot, read-out: MIC",0.008 µg/mL
same,MIC,"P. stuartii DR(A8382031); P. stuartii DR(A8382031), inoculum 10^4 CFU/spot, read-out: MIC",0.03 µg/mL
same,MIC,Pr. morganii (A8433001),0.008 µg/mL
same,MIC,[12],0.06 µg/mL
same,MIC,"S. dublin (A8369001); S. dublin (A8369001), inoculum 10^4 CFU/spot, read-out: MIC",0.004 µg/mL
same,MIC,[13],0.008 µg/mL
same,MIC,[14],0.008 µg/mL
same,MIC,"[15]; Strep. pneumoniae (A8671001), inoculum 10^4 CFU/spot, read-out: MIC",0.03 µg/mL
same,MIC,"[16]; Strep. pyogenes (A8681018), inoculum 10^4 CFU/spot, read-out: MIC",0.5 µg/mL
same,half-life (t 1/2) compared with representative compounds of EP-A-272827,half-life in marmosets; in words,substantially and significantly longer
same,half-life,"half-life in marmosets; marmoset, in vivo, 3 mg/kg",20.7 h
"CC(C)(O/N=C(\C(=O)N[C@@H]1C(=O)N2C(C(=O)[O-])=C(C[n+]3ccccc3)CS[C@H]12)c1csc(N)n1)C(=O)O [(B), ceftazidime, reference compound]",MIC,A. anitratus (A8322001),16 µg/mL
same,MIC,[1],128 µg/mL
same,MIC,[2],64 µg/mL
same,MIC,E. coli DCO(A8341098),0.125 µg/mL
same,MIC,[3],0.06 µg/mL
same,MIC,[4],32 µg/mL
same,MIC,[5],32 µg/mL
same,MIC,[7],0.125 µg/mL
same,MIC,[8],0.5 µg/mL
same,MIC,[9],2 µg/mL
same,MIC,[10],16 µg/mL
same,MIC,[11],1 µg/mL
same,MIC,P. stuartii DR(A8382031),4 µg/mL
same,MIC,Pr. morganii (A8433001),0.06 µg/mL
same,MIC,[12],16 µg/mL
same,MIC,S. dublin (A8369001),0.125 µg/mL
same,MIC,[13],0.25 µg/mL
same,MIC,[14],0.5 µg/mL
same,MIC,[15],0.125 µg/mL
same,MIC,[16],0.125 µg/mL
